Assay type in all cases: functional
The subject of assay [1] is Mycobacterium tuberculosis. Put plainly: Antitubercular activity against Mycobacterium tuberculosis SS9.
The subject of assay [2] is Mycobacterium tuberculosis. Put plainly: Antitubercular activity against Mycobacterium tuberculosis SS8.
Assay [3] relates to Mycobacterium tuberculosis. Put plainly: Antitubercular activity against Mycobacterium tuberculosis SS10.
For assay [4], the system named is Mycobacterium tuberculosis. Put plainly: Antitubercular activity against Mycobacterium tuberculosis SS1.
The test system of assay [5] is Mycobacterium tuberculosis. Put plainly: Antitubercular activity against Mycobacterium tuberculosis H37Rv.
Assay [6] deals with Mycobacterium tuberculosis. Put plainly: Antitubercular activity against Mycobacterium tuberculosis SS6.
Assay [7] deals with Mycobacterium tuberculosis. Put plainly: Antitubercular activity against Mycobacterium tuberculosis SS3.
For assay [8], the system named is Mycobacterium tuberculosis. Put plainly: Antitubercular activity against Mycobacterium tuberculosis SS5.
Assay [9] relates to Mycobacterium tuberculosis. Put plainly: Antitubercular activity against Mycobacterium tuberculosis SS7.
Assay [10] relates to Mycobacterium tuberculosis. Put plainly: Antitubercular activity against Mycobacterium tuberculosis SS2.
Assay [11] deals with Mycobacterium tuberculosis. Put plainly: Antitubercular activity against Mycobacterium tuberculosis SS11.
The test system of assay [12] is Mycobacterium tuberculosis. Put plainly: Antitubercular activity against Mycobacterium tuberculosis SS4.

20 molecules from ChEMBL document CHEMBL1146225, “[1,2,3]Triazolo[4,5-h]quinolones. A new class of potent antitubercular agents against multidrug resistant Mycobacterium tuberculosis strains” (Bioorg Med Chem Lett, 2007) can be followed below.

Values after ≈ are worked out from the molar mass of the structure shown.

Consider `Cn1nnc2c3c(ccc21)c(=O)c(C(=O)O)cn3CCc1ccccc1`, for which the MIC90 in assay [1] was 0.8 µg/mL (≈ 2.3 µM); in assay [2], 0.8 µg/mL (≈ 2.3 µM); in assay [3], 3.2 µg/mL (≈ 9.19 µM); in assay [4] it was 0.8 µg/mL (≈ 2.3 µM); in assay [5], 0.8 µg/mL (≈ 2.3 µM); in [6] it was 3.2 µg/mL (≈ 9.19 µM). Besides, the MIC90 in [7] was found to be 3.2 µg/mL (≈ 9.19 µM); in [8], 3.2 µg/mL (≈ 9.19 µM); in assay [9] it was 3.2 µg/mL (≈ 9.19 µM); in assay [10], 0.8 µg/mL (≈ 2.3 µM); in assay [11], 0.8 µg/mL (≈ 2.3 µM); in [12], 3.2 µg/mL (≈ 9.19 µM).

On to `Cn1nnc2c3c(ccc21)c(=O)c(C(=O)O)cn3Cc1ccc(Br)cc1`, for which the MIC90 in assay [1], in assay [2], in [3], in [4], in assay [5] and in assay [6] was > 32 µg/mL throughout. For the same molecule, the MIC90 in assay [7], in assay [8], in assay [9], in [10], in [11] and in assay [12] was > 32 µg/mL throughout.

As to `CCOC(=O)c1cn(Cc2ccccc2)c2c(ccc3c2nnn3C)c1=O`, the MIC90 in assay [1], in [2], in assay [3], in assay [4], in assay [5] and in [6] was > 32 µg/mL in each case. Also, the MIC90 in assay [7], in assay [8], in assay [9], in assay [10], in [11] and in [12] was > 32 µg/mL each time.

Take `CCOC(=O)c1cn(CCc2ccccc2)c2c(ccc3c2nnn3C)c1=O`: the MIC90 in assay [1], in assay [2], in assay [3], in assay [4], in [5] and in assay [6] was > 32 µg/mL throughout. Moreover, the MIC90 in assay [7], in [8], in assay [9], in assay [10], in assay [11] and in [12] was > 32 µg/mL each time.

`CCOC(=O)c1cn(C)c2c(ccc3c2nnn3C)c1=O`: the MIC90 in [1], in [2], in assay [3], in assay [4], in [5] and in assay [6] was 0.5 µg/mL (≈ 1.75 µM) in each case. In addition, the MIC90 was found to be 0.5 µg/mL (≈ 1.75 µM) in assay [7]; 0.5 µg/mL (≈ 1.75 µM) in [8]; 0.5 µg/mL (≈ 1.75 µM) in assay [9]; 0.5 µg/mL (≈ 1.75 µM) in assay [10]; 0.5 µg/mL (≈ 1.75 µM) in [11]; 2 µg/mL (≈ 6.99 µM) in assay [12].

With `CCCn1cc(C(=O)OCC)c(=O)c2ccc3c(nnn3C)c21`, the MIC90 in [1], in assay [2], in [3], in [4], in assay [5] and in assay [6] was > 32 µg/mL throughout. The MIC90 in assay [7], in assay [8], in assay [9], in [10], in [11] and in assay [12] was > 32 µg/mL in each case.

Regarding `CCOC(=O)c1cn(Cc2ccc(C)cc2)c2c(ccc3c2nnn3C)c1=O`, the MIC90 in [1], in assay [2], in assay [3], in assay [4], in assay [5] and in assay [6] was > 32 µg/mL throughout. For the same molecule, the MIC90 in assay [7], in assay [8], in assay [9], in assay [10], in [11] and in assay [12] was > 32 µg/mL each time.

Consider `CCn1cc(C(=O)O)c(=O)c2ccc3nn(C)nc3c21`, for which the MIC90 in assay [5] was 5 µg/mL (≈ 18.4 µM).

For `CCCn1cc(C(=O)O)c(=O)c2ccc3c(nnn3C)c21`, the MIC90 in assay [1], in [2], in assay [3], in assay [4], in assay [5] and in assay [6] was 1.6 µg/mL (≈ 5.59 µM) in each case. Besides, the MIC90 worked out at 1.6 µg/mL (≈ 5.59 µM) in assay [7]; 3.2 µg/mL (≈ 11.2 µM) in assay [8]; 3.2 µg/mL (≈ 11.2 µM) in [9]; 1.6 µg/mL (≈ 5.59 µM) in assay [10]; 1.6 µg/mL (≈ 5.59 µM) in assay [11]; 3.2 µg/mL (≈ 11.2 µM) in [12].

`CCn1cc(C(=O)O)c(=O)c2ccc3c(nnn3CC)c21` showed an MIC90 in assay [5] of 1.6 µg/mL (≈ 5.59 µM).

For the molecule `C=CCn1cc(C(=O)O)c(=O)c2ccc3c(nnn3C)c21`, the MIC90 in [1], in assay [2], in assay [3], in assay [4], in assay [5] and in [6] was > 32 µg/mL each time. In addition, the MIC90 in assay [7], in assay [8], in [9], in assay [10], in assay [11] and in assay [12] was > 32 µg/mL in each case.

Regarding `CCn1cc(C(=O)O)c(=O)c2ccc3c(nnn3C)c21`, the MIC90 in [1], in assay [2], in assay [3], in assay [4], in assay [5] and in assay [6] was 1.6 µg/mL (≈ 5.88 µM) in each case. For the same molecule, the MIC90 in [7] came to 3.2 µg/mL (≈ 11.8 µM); in assay [8] it was 1.6 µg/mL (≈ 5.88 µM); in assay [9], 3.2 µg/mL (≈ 11.8 µM); in assay [10], 0.8 µg/mL (≈ 2.94 µM); in [11] it was 1.6 µg/mL (≈ 5.88 µM); in assay [12] it was 3.2 µg/mL (≈ 11.8 µM).

In the case of `CO[C@H]1/C=C/O[C@@]2(C)Oc3c(C)c(O)c4c(O)c(c(/C=N/N5CCN(C)CC5)c(O)c4c3C2=O)NC(=O)/C(C)=C\C=C\[C@H](C)[C@H](O)[C@@H](C)[C@@H](O)[C@@H](C)[C@H](OC(C)=O)[C@@H]1C` [RIFAMPIN], the MIC90 in [1] is 0.5 µg/mL (≈ 0.608 µM); in assay [2], 0.5 µg/mL (≈ 0.608 µM); in [3], 0.8 µg/mL (≈ 0.972 µM); in assay [4] it was > 4 µg/mL; in assay [5], 0.7 µg/mL (≈ 0.851 µM); in [6], > 4 µg/mL. In addition, the MIC90 is 0.5 µg/mL (≈ 0.608 µM) in [7]; 0.5 µg/mL (≈ 0.608 µM) in assay [8]; 0.8 µg/mL (≈ 0.972 µM) in assay [9]; > 4 µg/mL in assay [10]; 0.5 µg/mL (≈ 0.608 µM) in assay [11]; 0.7 µg/mL (≈ 0.851 µM) in assay [12].

Consider `CCCCn1cc(C(=O)O)c(=O)c2ccc3c(nnn3C)c21`, for which the MIC90 in assay [1], in assay [2], in assay [3], in assay [4], in assay [5] and in assay [6] was > 32 µg/mL each time. Further, the MIC90 in assay [7], in assay [8], in [9], in assay [10], in [11] and in [12] was > 32 µg/mL in each case.

On to `Cc1ccc(Cn2cc(C(=O)O)c(=O)c3ccc4c(nnn4C)c32)cc1`, for which the MIC90 in assay [1], in assay [2], in assay [3], in assay [4], in assay [5] and in assay [6] was > 32 µg/mL throughout. Besides, the MIC90 in assay [7], in assay [8], in assay [9], in [10], in [11] and in assay [12] was > 32 µg/mL each time.

Take `CCOC(=O)c1cn(Cc2ccc(Br)cc2)c2c(ccc3c2nnn3C)c1=O`: the MIC90 in assay [1], in [2], in assay [3], in assay [4], in assay [5] and in [6] was > 32 µg/mL each time. In addition, the MIC90 in [7], in assay [8], in assay [9], in [10], in assay [11] and in [12] was > 32 µg/mL in each case.

Consider `Cn1cc(C(=O)O)c(=O)c2ccc3c(nnn3C)c21`, for which the MIC90 in assay [1], in [2], in assay [3], in [4], in [5] and in assay [6] was 0.5 µg/mL (≈ 1.94 µM) each time. The MIC90 in [7] was found to be 0.5 µg/mL (≈ 1.94 µM); in [8], 0.5 µg/mL (≈ 1.94 µM); in assay [9], 0.5 µg/mL (≈ 1.94 µM); in assay [10] it was 0.5 µg/mL (≈ 1.94 µM); in [11] it was 0.5 µg/mL (≈ 1.94 µM); in assay [12], 2 µg/mL (≈ 7.74 µM).

Turning to `Cn1nnc2c3[nH]cc(C(=O)O)c(=O)c3ccc21`, the MIC90 in assay [5] was found to be 4.8 µg/mL (≈ 19.7 µM).

On to `C=CCn1cc(C(=O)OCC)c(=O)c2ccc3c(nnn3C)c21`, for which the MIC90 in assay [1], in assay [2], in assay [3], in [4], in [5] and in assay [6] was > 32 µg/mL in each case. Besides, the MIC90 in assay [7], in [8], in assay [9], in [10], in [11] and in assay [12] was > 32 µg/mL in each case.

On to `Cn1nnc2c3c(ccc21)c(=O)c(C(=O)O)cn3Cc1ccccc1`, for which the MIC90 in assay [1], in assay [2], in [3], in assay [4], in assay [5] and in assay [6] was > 32 µg/mL each time. Moreover, the MIC90 in assay [7], in [8], in assay [9], in [10], in assay [11] and in assay [12] was > 32 µg/mL each time.

By MIC90 is commonly meant the lowest concentration that inhibits either 90% of growth or 90% of the strains tested, depending on the study. Read a low MIC90 as greater potency.
